In patent publication US20090215796A1, “Compositions, Kits and Methods for a Titration Schedule for Pardoprunox Compounds” (Solvay Pharmaceuticals B.V., priority 2008, published 2009):

Tests used:
subjects with early PD = assay: Double-blind, placebo-controlled proof of principle study S308.2.004, pardoprunox monotherapy; type: in vivo, human
Method: In a double-blind, placebo-controlled proof of principle (PoP) study (S308.2.004), the effects of pardoprunox on efficacy, safety and tolerability as monotherapy in early PD were investigated including 138 randomized and treated subjects. Following a fixed-flexible titration period (average length of 24 days), subjects were kept on maintenance dose levels for three weeks (9, 12, 15, 18, 24, 30, 36 or 45 mg/day). Study medication was taken orally three times daily (tid), in the morning, at noon and in the evening, with any missed doses not taken subsequently.
The dose of pardoprunox was progressively titrated from 0.3 mg/day to 9 mg/day according to a predefined schedule within 10 days, and to 30 mg/day within 20 days, by giving single dose unit or a combination of single dose unit. Daily doses were given over the day in the form of three dosage units. Up to the dose of 30 mg/day the titration was based on tolerability only, meaning that every next day (until step 10) or every other day (step 10-14) the dose was to be increased with one step if well-tolerated by the patient (see Table 3). […] From that moment, the patient had to stay on that lower dose level for 2 full days (at least 6 administrations) before trying the higher level again. The first administration of the higher dose had to be done in the morning. For a given titration step only one subsequent second attempt was allowed to reach the higher dose level. In total, three dose adjustments (on different titration steps) were allowed. If patients still could not reach a certain dose level after two sequential attempts and that dose level was below the minimum required dose level of 9 mg/day, they were not allowed to enter the maintenance phase. If a dose level of at least 9 mg/day has already been reached, they were allowed to maintain that dose level for the entire maintenance phase. Patients who reached the 30 mg/day dose could continue to escalate to 45 mg if tolerability allowed, and if further efficacy was expected. […]

[1] = system: subjects with PD characterized by motor fluctuations; assay: Safety study S308.3.005, two titration schedules of pardoprunox as adjunctive treatment to L-dopa; type: in vivo, human
Method: In this study, primarily a safety study, 62 subjects with PD characterized by motor fluctuations were randomized to one of three different treatment arms, consisting of two pardoprunox treatment arms (total daily dose 0.3-42 mg three times daily [tid]; groups 1 [25 subjects] and 2 [26 subjects]) and one placebo arm [11 subjects]). The study included a seven-week ascending dose period of pardoprunox as adjunctive treatment to L-dopa. The effect of two different titration schedules was investigated on the safety and tolerability profile, as well as the need and time required for L-dopa dose and/or regimen adjustments (see Table 4). The difference between the two pardoprunox groups was in titration steps taken to achieve at the same time the main study dose levels, namely Group 1—weekly, larger dose increments versus Group 2—with every 3 and 4-days smaller dose steps to the same ‘end of week’ pardoprunox main doses. In the group with the more gradual titration more than 92% of the subjects (24 out of 26) reached doses of 18 mg/day or higher, and 65% (17 out of 26 subjects) reached the highest dose level of 42 mg/day.

early PD patients = assay: First pivotal study S308.3.001, fixed and flexible dose arms versus placebo; type: in vivo, human
Method: In the first pivotal study in early PD patients (study S308.3.001), the efficacy and safety of two fixed dose arms of pardoprunox (6 mg/day [n=115; Group 1] and 12 mg/day [n=118; Group 2]), and a flexible dose arm (12-42 mg/day [n=116; Group 3]) was compared to placebo (n=119) (see Table 6 for titration schedules used).

human subjects = assay: Clinical investigations on pardoprunox hydrochloride (general tolerability); type: in vivo
dopamine D2 receptor = dopamine D2 receptor (Homo sapiens, UniProt P14416); details: cited from earlier work
Chain of dopamine D2 receptor (P14416 whole entry): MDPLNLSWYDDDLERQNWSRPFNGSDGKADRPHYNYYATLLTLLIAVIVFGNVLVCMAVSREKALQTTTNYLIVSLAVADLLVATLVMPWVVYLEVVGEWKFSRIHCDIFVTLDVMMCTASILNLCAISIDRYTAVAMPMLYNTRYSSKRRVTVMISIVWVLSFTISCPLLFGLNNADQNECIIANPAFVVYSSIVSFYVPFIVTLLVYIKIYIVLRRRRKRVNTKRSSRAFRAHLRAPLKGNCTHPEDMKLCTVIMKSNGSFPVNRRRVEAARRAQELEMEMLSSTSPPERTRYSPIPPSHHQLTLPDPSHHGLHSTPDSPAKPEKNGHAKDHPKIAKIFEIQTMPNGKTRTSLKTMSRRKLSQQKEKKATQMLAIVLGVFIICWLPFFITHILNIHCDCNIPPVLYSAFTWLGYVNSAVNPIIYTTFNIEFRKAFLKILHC

dopamine D3 receptor = dopamine D3 receptor (Homo sapiens, UniProt P35462); details: cited from earlier work
Chain of dopamine D3 receptor (P35462 whole entry): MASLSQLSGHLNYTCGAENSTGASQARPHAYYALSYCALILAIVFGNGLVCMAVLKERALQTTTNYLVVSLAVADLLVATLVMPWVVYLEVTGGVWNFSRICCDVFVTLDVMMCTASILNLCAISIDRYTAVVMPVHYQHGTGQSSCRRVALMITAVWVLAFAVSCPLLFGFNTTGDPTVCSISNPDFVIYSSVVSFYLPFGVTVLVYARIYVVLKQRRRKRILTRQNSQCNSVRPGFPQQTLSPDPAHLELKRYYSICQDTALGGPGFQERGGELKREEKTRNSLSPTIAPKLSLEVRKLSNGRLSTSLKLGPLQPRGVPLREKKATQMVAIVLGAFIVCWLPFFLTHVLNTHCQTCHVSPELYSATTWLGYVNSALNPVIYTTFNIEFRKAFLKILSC

5-HT1A = target: T1, 5-HT1A (Homo sapiens, UniProt P08908); details: cited from earlier work
T1 sequence (P08908 1-422): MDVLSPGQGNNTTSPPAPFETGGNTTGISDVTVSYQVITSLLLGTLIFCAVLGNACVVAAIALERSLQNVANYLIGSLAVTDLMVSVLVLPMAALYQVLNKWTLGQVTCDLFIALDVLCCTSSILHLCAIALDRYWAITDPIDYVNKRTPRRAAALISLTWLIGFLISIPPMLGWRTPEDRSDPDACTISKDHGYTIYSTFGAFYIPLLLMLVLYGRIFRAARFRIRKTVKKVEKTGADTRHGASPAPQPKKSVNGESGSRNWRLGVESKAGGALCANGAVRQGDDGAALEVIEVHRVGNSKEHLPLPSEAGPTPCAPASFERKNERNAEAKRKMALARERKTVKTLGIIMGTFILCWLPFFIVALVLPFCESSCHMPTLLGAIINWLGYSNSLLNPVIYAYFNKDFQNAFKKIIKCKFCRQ

animal models = details: cited from earlier work

Row | SMILES | efficacy between subgroups treated with 9-15 mg/day, 18-30 mg/day and >30-45 mg/day (subjects with early PD; explorative evaluation, dose/effect plot) | subjects who reached the highest dose level of 45 mg/day (subjects with early PD; flexible titration based on tolerability, tid oral) | subjects treated with pardoprunox doses of ≧30 mg/day (subjects with early PD; flexible titration based on tolerability, tid oral, maintenance 9-45 mg/day) | doses or titration steps not tolerated (defined as causing more than 20% drop outs) ([1]; 0.3-42 mg/day tid) | subjects who terminated the study due to treatment related Adverse Effects ([1]; between 18 and 30 mg/day, group with smaller dose increments (four subjects)) [%] | drop-out rate ([1]; group with the larger, weekly dose increments (Group 1) compared with Group 2 and placebo, FIG. 1) | subjects who reached the highest dose level of 42 mg/day ([1]; group with the more gradual titration (Group 2), 17 out of 26 subjects) [%] | drop out rate due to treatment related Adverse Effects ([1]; up to the 18 mg/day dose, group with smaller dose increments) [%] | tolerability (early PD patients; 6 mg/day fixed dose group versus higher dose groups) | primary outcome measure UPDRS motor score versus placebo (early PD patients; all active treatment arms: 6 mg/day, 12 mg/day, 12-42 mg/day) | minimum effective dose (early PD patients; early PD patient population, conclusion from study) [mg/day] | tolerability (human subjects; healthy human subjects) | agonist activity at dopamine D2 receptor (dopamine D2 receptor) | agonist activity at dopamine D3 receptor (dopamine D3 receptor) | agonist activity at 5-HT1A (5-HT1A) | anti-PD effect (animal models) | antidepressant and anxiolytic efficacy (animal models) | tolerability (human subjects; clinical investigations)
1 | CN1CCN(c2cccc3[nH]c(=O)oc23)CC1 [pardoprunox, 7-(4-methyl)-1-piperazinyl-2(3H)-benzoxazolone] | did not provide any clear differences in efficacy | approximately 16% | Approximately 40% | no particular doses or titration steps that could not be tolerated | 15 | much higher drop-out rate | 65 | 4 | better than that of the higher dose groups | statistically superior to placebo | < 12 | relatively well tolerated | partial dopamine D2 and D3 receptor agonist | partial dopamine D2 and D3 receptor agonist | full 5-HT1A agonist activity | marked and long-lasting anti-PD effect | evidence of antidepressant and anxiolytic efficacy | –
2 | CN1CCN(c2cccc3[nH]c(=O)oc23)CC1.Cl [pardoprunox hydrochloride, 7-(4-methyl)-1-piperazinyl-2(3H)-benzoxazolone hydrochloride] | – | – | – | – | – | – | – | – | – | – | – | – | – | – | – | – | – | well tolerated
